Measurements: US8822494B2 (Pfizer Inc., priority 2012, dated 2014)
pEC50: −log10 of the molar value. Read-outs that look alike come from different tables or passages of the source.

Legend:
Human D1 [1] = molecular target: T1, Human D1 (Homo sapiens (Human), UniProt P21728); test: D1 cAMP HTRF Assay; type: cell-based; conditions: HEK293T/hD1#1 stable cell line, 30 min at room temperature, footnote a = geometric mean of ≧7 determinations; for EC50: read-out: Human D1 cAMP HTRF, EC50 (μM), Geometric mean of 2-6 determinations
Excerpt: This assay was used to determine the ability of a test compound to agonize (including partially agonize) D1. A Mab anti-cAMP labeled Cryptate visualizes the tracer. […] The signal, therefore, is inversely proportional to the concentration of cAMP in the sample.
The cAMP Dynamic kit was obtained from Cisbio International (Cisbio 62AM4PEJ). Multidrop Combi (Thermo Scientific) was used for assay additions. An EnVision (PerkinElmer) reader was used to read HTRF.
A HEK293T/hD1#1 stable cell line was constructed internally (Pfizer Ann Arbor).
Media was removed and cell pellet was re-suspended in PBS/[…] generating 2e5 cells/mL. […] Working solutions of cAMP-D2 and anti-cAMP-cryptate were prepared according to Cisbio instructions. […] The assay plate was incubated for 1 hour at room temperature. The assay plate was read on an EnVision plate reader using Cisbio recommended settings.
Data analysis was done using computer software. Percent effects were calculated from the compound controls. Ratio EC50 was determined using the raw ratio data from the EnVision reader. The cAMP standard curve was used in an analysis program to determine cAMP concentrations from raw ratio data. cAMP EC50 was determined using the calculated cAMP data.

Human D1 [2] = molecular target: T1, Human D1; test: Human D1 Receptor Binding Assay ([3H]-SCH23390 competition); conditions: read-out: Human D1 Receptor Binding, Ki (μM); Geometric mean of 2-3 determinations; over-expressing LTK human cell lines, 0.5 nM [3H]-SCH23390, 30 min at 37° C.; footnote b = single determination, c = geometric mean of ≧4 determinations
Description: D1 binding assays were performed using over-expressing LTK human cell lines. […] These ligand and tissue concentrations were used in time course studies to determine linearity and equilibrium conditions for binding. […] The pellet was resuspended in assay buffer [50 mM Tris (pH 7.4@ RT) containing 4 mM MgSO4 and 0.5 mM EDTA]. […] Non-specific binding was determined by radioligand binding in the presence of a saturating concentration of (+)-Butaclamol (10 μM), a D1 antagonist. After a 30 minute incubation period at 37° C., assay samples were rapidly filtered through Unifilter-96 GF/B PEI-coated filter plates and rinsed with 50 mM Tris buffer (pH 7.4 at 4° C.). […] Ki values were calculated according to the Cheng-Prusoff equation: […]

T1 sequence (P21728 whole entry): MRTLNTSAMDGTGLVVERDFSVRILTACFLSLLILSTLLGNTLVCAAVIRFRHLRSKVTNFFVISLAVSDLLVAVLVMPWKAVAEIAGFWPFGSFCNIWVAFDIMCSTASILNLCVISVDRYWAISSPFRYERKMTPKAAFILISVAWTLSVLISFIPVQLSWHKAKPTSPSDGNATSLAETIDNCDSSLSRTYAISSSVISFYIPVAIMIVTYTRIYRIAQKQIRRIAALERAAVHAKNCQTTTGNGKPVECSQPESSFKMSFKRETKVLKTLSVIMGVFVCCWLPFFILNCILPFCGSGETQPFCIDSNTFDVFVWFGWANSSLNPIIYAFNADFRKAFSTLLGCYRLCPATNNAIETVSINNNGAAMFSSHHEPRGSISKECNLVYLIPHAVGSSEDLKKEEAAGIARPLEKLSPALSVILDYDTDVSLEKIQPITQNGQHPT

Row | Structure (SMILES) | pEC50 (Human D1 [1]) | Ki (Human D1 [2]) [µM] | EC50 (Human D1 [1]) [µM]
1 | Cc1cc(Oc2nccc3n[nH]cc23)ccc1-c1c(C)n[nH]c(=O)c1C (single isomer, unassigned) [Example 3, (+)-4,6-dimethyl-5-[2-methyl-4-(1H-pyrazolo[4,3-c]pyridin-4-yloxy)phenyl]pyridazin-3(2H)-one] | 7.82 | 0.00976 | –
2 | Cc1cc(Oc2nccc3n[nH]cc23)ccc1-c1c(C)n[nH]c(=O)c1C (single isomer, unassigned) [Example 4, (−)-4,6-dimethyl-5-[2-methyl-4-(1H-pyrazolo[4,3-c]pyridin-4-yloxy)phenyl]pyridazin-3(2H)-one] | 7.98 | 0.0104 | –
3 | Cc1cc(Oc2nccc3n[nH]cc23)ccc1-c1c(C)c(=O)[nH]c(=O)n1C (single isomer, unassigned) [Example 8, (−)-1,5-dimethyl-6-[2-methyl-4-(1H-pyrazolo[4,3-c]pyridin-4-yloxy)phenyl]pyrimidine-2,4(1H,3H)-dione] | > 8.65 | 0.00183 | –
4 | Cc1cc(Oc2nccc3[nH]ccc23)ccc1-c1c(C)ncc(=O)n1C (single isomer, unassigned) [Example 26, (−)-1,5-dimethyl-6-[2-methyl-4-(1H-pyrrolo[3,2-c]pyridin-4-yloxy)phenyl]pyrazin-2(1H)-one] | 7.14 | 0.00456 | –
5 | Cc1cc(Oc2nccc3[nH]ccc23)ccc1-c1c(C)ncc(=O)n1C (single isomer, unassigned) [Example 27, (+)-1,5-dimethyl-6-[2-methyl-4-(1H-pyrrolo[3,2-c]pyridin-4-yloxy)phenyl]pyrazin-2(1H)-one] | 7.19 | 0.0106 | –
6 | Cc1cc(Oc2nccc3n[nH]cc23)ccc1-c1c(C)ncc(=O)n1C (single isomer, unassigned) [Example 39, (−)-1,5-dimethyl-6-[2-methyl-4-(1H-pyrazolo[4,3-c]pyridin-4-yloxy)phenyl]pyrazin-2(1H)-one] | 6.77 | 0.0418 | –
7 | Cc1cc(Oc2nccc3n[nH]cc23)ccc1-c1c(C)ncc(=O)n1C (single isomer, unassigned) [Example 40, (+)-1,5-dimethyl-6-[2-methyl-4-(1H-pyrazolo[4,3-c]pyridin-4-yloxy)phenyl]pyrazin-2(1H)-one] | 6.17 | 0.0281 | –
8 | Cc1cc(Oc2nccc3[nH]ccc23)ccc1-c1c(C)n[nH]c(=O)c1C (single isomer, unassigned; ent-1) [Example 9, 4,6-dimethyl-5-[2-methyl-4-(1H-pyrrolo[3,2-c]pyridin-4-yloxy)phenyl]pyridazin-3(2H)-one, ENT-1] | – | 0.00487 | 0.00733
9 | Cc1cc(Oc2nccc3[nH]ccc23)ccc1-c1c(C)cnnc1C (single isomer, unassigned; ent-1) [Example 11, 4-[4-(3,5-dimethylpyridazin-4-yl)-3-methylphenoxy]-1H-pyrrolo[3,2-c]pyridine, ENT-1] | – | 0.0141 | 0.117
10 | Cc1cc(Oc2nccc3[nH]ccc23)ccc1-c1c(C)n[nH]c(=O)c1C (single isomer, unassigned; ent-2) [Example 10, 4,6-dimethyl-5-[2-methyl-4-(1H-pyrrolo[3,2-c]pyridin-4-yloxy)phenyl]pyridazin-3(2H)-one, ENT-2] | – | 0.00504 | 0.00431
11 | Cc1cc(Oc2nccc3[nH]ccc23)ccc1-c1c(C)cnnc1C (single isomer, unassigned; ent-2) [Example 12, 4-[4-(3,5-dimethylpyridazin-4-yl)-3-methylphenoxy]-1H-pyrrolo[3,2-c]pyridine, ENT-2] | – | 0.0883 | 0.52
12 | Cc1ncnc(C)c1-c1ccc(Oc2nccc3[nH]ccc23)cc1F [Example 1, 4-[4-(4,6-dimethylpyrimidin-5-yl)-3-fluorophenoxy]-1H-pyrrolo[3,2-c]pyridine] | 6.75 | 0.0303 | –
13 | Cc1cc(Oc2nccc3[nH]ccc23)ccc1-c1c(C)cnn1C [Example 2, 4-[4-(1,4-dimethyl-1H-pyrazol-5-yl)-3-methylphenoxy]-1H-pyrrolo[3,2-c]pyridine] | 6.45 | 0.0348 | –
